Results taken from PubChem BioAssay AID192 (DTP/NCI, 2004).
Values joined by “and” are separate entries in the source; they are usually repeats but may differ in a detail not shown here. Equal entries are not always repeated. Inconclusive results and toxic doses are left out. Peptide text beside a SMILES is read from it. * marks the point of attachment. Cbz = O=C(OCc1ccccc1)*

Test system: BDF1 mice, B16 melanoma ip, median survival T/C
Test: NCI In Vivo Anticancer Drug Screen. Data for tumor model B16 Melanoma (intraperitoneal) in B6D2F1 (BDF1) mice
Conditions: endpoint: median survival time, higher = longer survival
Outline: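 Each result divides a survival or tumor-size measurement in the compound-treated group by the same measurement in the vehicle group.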

[1] = dose: 6.25 mg/kg/injection, schedule: Q01DX009 (ip), vehicle: saline
[2] = dose: 12.5 mg/kg/injection, schedule: Q01DX009 (ip), vehicle: saline
[3] = dose: 25.0 mg/kg/injection, schedule: Q01DX009 (ip), vehicle: saline
[4] = dose: 50.0 mg/kg/injection, schedule: Q01DX009 (ip), vehicle: saline
[5] = dose: 100.0 mg/kg/injection, schedule: Q01DX009 (ip), vehicle: saline
[6] = dose: 12.5 mg/kg/injection, schedule: Q01DX009 (ip), vehicle: saline with Tween-80
[7] = dose: 25.0 mg/kg/injection, schedule: Q01DX009 (ip), vehicle: saline with Tween-80
[8] = dose: 50.0 mg/kg/injection, schedule: Q01DX009 (ip), vehicle: saline with Tween-80
[9] = dose: 100.0 mg/kg/injection, schedule: Q01DX009 (ip), vehicle: saline with Tween-80
[10] = dose: 50.0 mg/kg/injection, schedule: Q01DX009 (ip), vehicle: Klucel (hydroxypropylcellulose) (HPC)
[11] = dose: 3.12 mg/kg/injection, schedule: Q01DX009 (ip), vehicle: saline
[12] = dose: 100.0 mg/kg/injection, schedule: Q01DX009 (ip), vehicle: Klucel (hydroxypropylcellulose) (HPC)
[13] = dose: 200.0 mg/kg/injection, schedule: Q01DX009 (ip), vehicle: Klucel (hydroxypropylcellulose) (HPC)
[14] = dose: 200.0 mg/kg/injection, schedule: Q01DX009 (ip), vehicle: saline with Tween-80

SMILES: CCN(CC)CCOC(=O)c1ccc(N)cc1
- T/C [1]: 100 % of control
- T/C [2]: 92 % of control
- T/C [3]: 100 % of control
- T/C [4]: 107 % of control
- T/C [5]: 105 % of control

SMILES: O=[N+]([O-])c1ccc(Sc2ccncn2)c([N+](=O)[O-])c1
- T/C [6]: 100 % of control and 109 % of control
- T/C [7]: 94 % of control and 101 % of control
- T/C [8]: 95 % of control and 106 % of control
- T/C [9]: 108 % of control

SMILES: COC(=O)C(CSCc1ccccc1)NC(=O)OCc1ccccc1 (centres undefined)
- T/C [10]: 87 % of control

SMILES: CC(=O)N(C)C(C(=O)N1CC(C)CC1C(=O)N(C)C1C(=O)NC(CC(C)C)C(=O)N2CC(C)CC2C(=O)NC(CC(C)C)C(=O)N(C)C(C(C)C)C(=O)N2CCCC2C(=O)N(C)C(CC(C)C)C(=O)NCC(=O)OC1C)C(C)C (centres undefined)
- T/C (dose: 18.75 mg/kg/injection, schedule: Q01DX009 (ip), vehicle: Klucel (hydroxypropylcellulose) (HPC)): 94 % of control
- T/C (dose: 37.5 mg/kg/injection, schedule: Q01DX009 (ip), vehicle: Klucel (hydroxypropylcellulose) (HPC)): 97 % of control
- T/C (dose: 75.0 mg/kg/injection, schedule: Q01DX009 (ip), vehicle: Klucel (hydroxypropylcellulose) (HPC)): 94 % of control

SMILES: O=C(O)CCC(=O)Nc1ccccc1C(F)(F)F
- T/C (dose: 12.5 mg/kg/injection, schedule: Q04DX003 (ip), vehicle: saline with Tween-80): 108 % of control
- T/C (dose: 25.0 mg/kg/injection, schedule: Q04DX003 (ip), vehicle: saline with Tween-80): 111 % of control
- T/C (dose: 50.0 mg/kg/injection, schedule: Q04DX003 (ip), vehicle: saline with Tween-80): 113 % of control
- T/C (dose: 100.0 mg/kg/injection, schedule: Q04DX003 (ip), vehicle: saline with Tween-80): 108 % of control
- T/C (dose: 200.0 mg/kg/injection, schedule: Q04DX003 (ip), vehicle: saline with Tween-80): 105 % of control

SMILES: C[CH2][Pb]([CH2]C)([CH2]C)[O]C(=O)COC
- T/C (dose: 1.56 mg/kg/injection, schedule: Q01DX009 (ip), vehicle: Klucel (hydroxypropylcellulose) (HPC)): 96 % of control
- T/C (dose: 3.13 mg/kg/injection, schedule: Q01DX009 (ip), vehicle: Klucel (hydroxypropylcellulose) (HPC)): 105 % of control

SMILES: CCCc1ccc(OC)cc1
- T/C [7]: 97 % of control
- T/C [8]: 105 % of control
- T/C [9]: 90 % of control

SMILES: N/N=C(\N)c1nn(C2OC(CO)C(O)C2O)c2ncnc(N)c12 (centres undefined)
- T/C (dose: 40.0 mg/kg/injection, schedule: Q01DX005 (ip), vehicle: saline): 91 % of control
- T/C (dose: 80.0 mg/kg/injection, schedule: Q01DX005 (ip), vehicle: saline): 95 % of control
- T/C (dose: 160.0 mg/kg/injection, schedule: Q01DX005 (ip), vehicle: saline): 100 % of control

SMILES: CN1CCC(=C2c3ccccc3C=Cc3ccccc32)CC1
- T/C [11]: 110 % of control
- T/C [1]: 102 % of control
- T/C [3]: 105 % of control
- T/C [4]: 105 % of control

SMILES: CCCCCCCCCCCCCCNC(=O)CCl
- T/C [12]: 113 % of control
- T/C [13]: 106 % of control

SMILES: CCN(CC)CCOc1ccc2c(c1)C(=O)c1cc(OCCN(CC)CC)ccc1-2
- T/C (dose: 13.0 mg/kg/injection, schedule: Q01DX009 (ip), vehicle: saline): 124 % of control
- T/C (dose: 21.6 mg/kg/injection, schedule: Q01DX009 (ip), vehicle: saline): 123 % of control
- T/C [5]: 124 % of control

SMILES: CC(N)Cc1ccc2c(c1)OCO2 (centres undefined)
- T/C [11]: 119 % of control
- T/C [1]: 116 % of control
- T/C [2]: 102 % of control
- T/C [3]: 108 % of control
- T/C [4]: 116 % of control

SMILES: CC[n+]1ccc(Nc2ccc(NC(=O)c3ccc(C(=O)Nc4ccc(Nc5cc[n+](CC)c(N)n5)cc4)cc3)cc2)nc1N
- T/C (dose: 25.0 mg/kg/injection, schedule: Q01DX009 (ip), vehicle: suspension in saline): 162 % of control
- T/C (dose: 50.0 mg/kg/injection, schedule: Q01DX009 (ip), vehicle: suspension in saline): 163 % of control

SMILES: C=CCc1ccccc1OC
- T/C [3]: 116 % of control
- T/C [4]: 109 % of control
- T/C [5]: 106 % of control

SMILES: COc1cc(C2c3cc4c(cc3CC3COC(=O)C32)OCO4)cc(OC)c1O (centres undefined)
- T/C (dose: 0.5 mg/kg/injection, schedule: Q01DX009 (ip), vehicle: saline with Tween-80): 98 % of control
- T/C (dose: 1.0 mg/kg/injection, schedule: Q01DX009 (ip), vehicle: saline with Tween-80): 104 % of control
- T/C (dose: 2.0 mg/kg/injection, schedule: Q01DX009 (ip), vehicle: saline with Tween-80): 123 % of control
- T/C (dose: 4.0 mg/kg/injection, schedule: Q01DX009 (ip), vehicle: saline with Tween-80): 106 % of control

SMILES: Nc1cc(N)cc(C(=O)c2ccccc2)c1
- T/C [9]: 93 % of control
- T/C [14]: 97 % of control
- T/C (dose: 400.0 mg/kg/injection, schedule: Q01DX009 (ip), vehicle: saline with Tween-80): 93 % of control

SMILES: CC(C)CC(NC(=O)C(Cc1ccccc1)NC(=O)OCc1ccccc1)C(=O)O (stereo not drawn) (Cbz-Phe-Leu-OH; configuration not given here)
- T/C [7]: 92 % of control
- T/C [8]: 93 % of control
- T/C [9]: 90 % of control
- T/C [14]: 87 % of control

SMILES: COc1ccc(NC(=O)Nc2ccccc2F)cc1
- T/C [12]: 97 % of control
- T/C [13]: 97 % of control

SMILES: CS(=O)(=O)OCCN(CCOS(C)(=O)=O)c1ccc(C=Nc2ccc(-c3csc(Cc4ccccc4)n3)cc2)c(Cl)c1
- T/C (dose: 6.25 mg/kg/injection, schedule: Q01DX009 (ip), vehicle: Klucel (hydroxypropylcellulose) (HPC)): 107 % of control and 110 % of control
- T/C (dose: 12.5 mg/kg/injection, schedule: Q01DX009 (ip), vehicle: Klucel (hydroxypropylcellulose) (HPC)): 120 % of control
- T/C [10]: 153 % of control

SMILES: Cc1c2ccc3ccccc3c2c[n+]2ccccc12
- T/C (dose: 1.25 mg/kg/injection, schedule: Q01DX009 (ip), vehicle: Klucel (hydroxypropylcellulose) (HPC)): 98 % of control
- T/C (dose: 2.5 mg/kg/injection, schedule: Q01DX009 (ip), vehicle: Klucel (hydroxypropylcellulose) (HPC)): 98 % of control
- T/C (dose: 5.0 mg/kg/injection, schedule: Q01DX009 (ip), vehicle: Klucel (hydroxypropylcellulose) (HPC)): 111 % of control
- T/C (dose: 10.0 mg/kg/injection, schedule: Q01DX009 (ip), vehicle: Klucel (hydroxypropylcellulose) (HPC)): 108 % of control
- T/C (dose: 20.0 mg/kg/injection, schedule: Q01DX009 (ip), vehicle: Klucel (hydroxypropylcellulose) (HPC)): 102 % of control

SMILES: COc1cc(C(=O)OC(C)CN2CCOCC2)cc(OC)c1OC (centres undefined)
- T/C (dose: 3.12 mg/kg/injection, schedule: Q04DX003 (ip), vehicle: saline): 106 % of control
- T/C (dose: 6.25 mg/kg/injection, schedule: Q04DX003 (ip), vehicle: saline): 111 % of control
- T/C [2]: 100 % of control
- T/C (dose: 12.5 mg/kg/injection, schedule: Q04DX003 (ip), vehicle: saline): 106 % of control
- T/C [3]: 100 % of control
- T/C (dose: 25.0 mg/kg/injection, schedule: Q04DX003 (ip), vehicle: saline): 105 % of control
- T/C [4]: 100 % of control
- T/C (dose: 50.0 mg/kg/injection, schedule: Q04DX003 (ip), vehicle: saline): 102 % of control
- T/C [5]: 108 % of control
- T/C (dose: 100.0 mg/kg/injection, schedule: Q04DX003 (ip), vehicle: saline): 98 % of control
- T/C (dose: 200.0 mg/kg/injection, schedule: Q01DX009 (ip), vehicle: saline): 102 % of control
- T/C (dose: 200.0 mg/kg/injection, schedule: Q04DX003 (ip), vehicle: saline): 118 % of control
- T/C (dose: 400.0 mg/kg/injection, schedule: Q04DX003 (ip), vehicle: saline): 97 % of control

SMILES: Cc1cc(-c2ccc(N=Nc3ccc4c(S(=O)(=O)O)cc(S(=O)(=O)O)c(N)c4c3O)c(C)c2)ccc1N=Nc1ccc2c(S(=O)(=O)O)cc(S(=O)(=O)O)c(N)c2c1O
- T/C [2]: 121 % of control

SMILES: CC1=NN(c2ccccc2)C(=O)C1N=Nc1ccccc1S(=O)(=O)O (centres undefined)
- T/C [8]: 90 % of control

SMILES: CNC(=O)Oc1cccn(C(=O)NC)c1=O
- T/C [2]: 86 % of control
- T/C [3]: 91 % of control and 93 % of control
- T/C [4]: 87 % of control
- T/C (dose: 75.0 mg/kg/injection, schedule: Q01DX009 (ip), vehicle: saline): 88 % of control
- T/C [5]: 86 % of control

SMILES: Cc1cccc2c(C(=O)O)cc(-c3ccc(Cl)cc3)nc12
- T/C [6]: 97 % of control
- T/C [7]: 97 % of control
- T/C [8]: 95 % of control
